Assays:
[1] = Phase 1 study: plasma pharmacokinetics, noncompartmental analysis; assay type: in vivo, human
[2] = test system: MMD gene expression in peripheral blood; test: Phase 1 study: MMD gene expression in peripheral blood; assay type: in vivo, human; details: dose expansion, 60 mg once per week

## COc1ccc(-c2c(-c3ccc(C#N)c(F)c3)nc(N3CCC(N)CC3)n(C)c2=O)cc1F [CC‐90011]
[1]; dose expansion, 60 mg once per week
  accumulation with repeat dosing based on the AUC: Negligible accumulation
[1]; dose expansion, NEN, n = 16, 60 mg once per week
  time of peak CC-90011 concentration after treatment, approximate median: ~4 h
[1]; in words
  terminal half-life: long terminal half‐life
[2]
  downregulation in MMD gene expression in the peripheral blood: ≥ 50%

Source: publication PMC9540525 (Cancer, 2022)
